# Measurements as given in ChEMBL document CHEMBL1201862, “PubChem BioAssay data set” (2004).
# Activity calls are given as the source filed them.
# Legend:
# [1] = biological target: T1, DNA repair and recombination protein RAD54-like (Homo sapiens, UniProt Q92698); experiment: inhibitors of human RAD54 branch migration, confirmation, biochemical, fluorescence, cherry-picked samples, dose series (AID 651657); type: functional
# T1 sequence (Q92698 whole entry): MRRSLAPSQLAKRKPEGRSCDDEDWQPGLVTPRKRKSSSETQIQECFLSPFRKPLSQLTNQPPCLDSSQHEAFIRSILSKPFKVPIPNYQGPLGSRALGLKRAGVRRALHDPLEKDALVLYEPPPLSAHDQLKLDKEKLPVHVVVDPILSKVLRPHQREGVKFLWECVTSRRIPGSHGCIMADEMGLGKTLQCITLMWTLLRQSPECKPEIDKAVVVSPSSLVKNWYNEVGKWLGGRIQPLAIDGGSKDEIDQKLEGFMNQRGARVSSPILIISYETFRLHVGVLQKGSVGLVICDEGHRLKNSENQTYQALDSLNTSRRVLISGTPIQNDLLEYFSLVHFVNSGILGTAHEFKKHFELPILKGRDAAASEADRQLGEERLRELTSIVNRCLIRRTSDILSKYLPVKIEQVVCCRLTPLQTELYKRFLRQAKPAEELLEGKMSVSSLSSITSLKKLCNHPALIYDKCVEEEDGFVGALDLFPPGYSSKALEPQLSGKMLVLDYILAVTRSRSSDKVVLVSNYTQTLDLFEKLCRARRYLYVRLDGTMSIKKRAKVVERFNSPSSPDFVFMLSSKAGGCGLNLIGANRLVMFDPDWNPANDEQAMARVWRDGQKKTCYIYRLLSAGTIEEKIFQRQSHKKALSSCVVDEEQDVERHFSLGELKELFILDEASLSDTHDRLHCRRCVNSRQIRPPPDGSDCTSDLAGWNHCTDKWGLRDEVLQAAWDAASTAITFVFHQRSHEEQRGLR
# [2] = biological target: T2, Heat shock factor protein 1 (Mus musculus, UniProt P38532); experiment: inhibition of MG132-induced HSE-luciferase signal, confirmation, cell-based, NIH3T3, luminescence, dose retest (AID 2382); type: functional;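 also: NIH3T3 fibroblasts with HSF1-driven luciferase reporter stressed by proteasome inhibitor MG132; luminescence from HSF1-driven luciferase expression after 8 hours of MG132 stress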
# T2 sequence (P38532 whole entry): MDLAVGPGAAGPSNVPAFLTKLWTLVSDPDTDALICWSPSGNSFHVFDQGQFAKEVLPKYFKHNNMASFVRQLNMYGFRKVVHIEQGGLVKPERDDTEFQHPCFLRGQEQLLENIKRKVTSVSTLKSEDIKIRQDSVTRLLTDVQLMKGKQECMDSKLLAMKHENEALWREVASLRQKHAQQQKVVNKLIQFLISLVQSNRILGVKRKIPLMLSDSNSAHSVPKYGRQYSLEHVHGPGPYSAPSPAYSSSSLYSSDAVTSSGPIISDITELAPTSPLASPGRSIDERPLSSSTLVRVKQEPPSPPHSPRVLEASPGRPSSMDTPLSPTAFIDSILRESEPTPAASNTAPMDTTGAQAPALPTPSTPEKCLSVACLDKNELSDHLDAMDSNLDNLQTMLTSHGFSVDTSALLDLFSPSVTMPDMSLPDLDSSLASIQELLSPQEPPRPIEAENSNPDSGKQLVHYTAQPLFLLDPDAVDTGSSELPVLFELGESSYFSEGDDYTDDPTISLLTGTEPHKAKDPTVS
# [3] = biological target: Photoreceptor-specific nuclear receptor (Homo sapiens, UniProt Q9Y5X4); type: functional, cell-based;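 also: CHO-S cells with Gal4-NCOR and VP16-NR2E3 two-hybrid luciferase reporter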
# Chain of Photoreceptor-specific nuclear receptor (Q9Y5X4 whole entry, the tested form may be a part): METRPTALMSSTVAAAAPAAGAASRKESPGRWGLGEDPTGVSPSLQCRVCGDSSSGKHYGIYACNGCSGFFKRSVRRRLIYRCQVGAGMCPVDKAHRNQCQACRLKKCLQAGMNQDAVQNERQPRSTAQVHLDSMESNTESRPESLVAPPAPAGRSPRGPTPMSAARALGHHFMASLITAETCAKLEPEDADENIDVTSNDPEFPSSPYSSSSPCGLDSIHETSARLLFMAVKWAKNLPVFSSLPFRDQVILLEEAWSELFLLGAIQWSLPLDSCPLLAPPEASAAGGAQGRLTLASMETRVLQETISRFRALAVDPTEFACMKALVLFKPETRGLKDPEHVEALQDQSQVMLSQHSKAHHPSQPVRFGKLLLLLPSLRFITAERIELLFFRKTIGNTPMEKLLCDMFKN
# [4] = HEp-2 cell cytotoxicity, dose response, cytotoxicity control for RSV inhibitor project, HTS (AID 2410); type: functional; conditions: human respiratory syncytial virus
# [5] = inhibitors of HIV Env-driven cell fusion, dose response, cherry-pick (AID 652057); type: functional, cell-based
# [6] = ZM109 Env clade C HIV-1 fusion inhibitors, dose response, HeLa effector, CEM target cells, luciferase, cherry-pick (AID 652058); type: functional, cell-based
# [7] = off-target signal loss in HeLa-CEM21 co-culture – HeLa F-luc CTL cells, cherry-picked, counter-screen for HIV-1 Env fusion inhibitor project, dose response (AID 652040); type: functional, cell-based;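 also: potency for signal decrease marking cytotoxic or nonspecific inhibition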
# [8] = inhibitors of clade B AD8 Env fusion, dose response, cell-based, cherry-pick (AID 652062); type: functional;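 also: luciferase signal from cell-cell fusion driven by HIV-1 clade B AD8 Env; potency is for inhibitors of fusion seen as a drop in luminescence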
# cells [9] = experiment: cells
# [10] = biological target: T3, Low molecular weight phosphotyrosine protein phosphatase (Homo sapiens, UniProt P24666); type: functional; conditions: read-out: IC50_Mean
# T3 sequence (P24666 whole entry): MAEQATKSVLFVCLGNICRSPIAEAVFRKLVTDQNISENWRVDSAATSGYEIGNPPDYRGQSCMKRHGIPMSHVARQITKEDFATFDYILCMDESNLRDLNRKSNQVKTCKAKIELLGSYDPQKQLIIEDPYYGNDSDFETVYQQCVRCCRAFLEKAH
# [11] = biological target: T3, Low molecular weight phosphotyrosine protein phosphatase; type: functional; conditions: read-out: IC50_Mean; remark: listed apart in the source
# [12] = inhibitors of firefly luciferase expression or activity, dose response, H4 neuroglioma cells, luminescence (AID 1990); type: functional, cell-based
# [13] = luciferase reporter signal reduction – luminescence, H4-C neuroglioblastoma cells, dose response (AID 2458); type: functional, cell-based;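 also: H4 neuroglioblastoma cells stably carrying a luciferase reporter gene fusion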
# BJ [14] = experiment: cytotoxicity toward BJ-TERT fibroblasts, dose response, cell-based, RAS-independent, luminescence (AID 1933); type: functional; conditions: Homo sapiens
# cells [15] = type: functional, cell-based
# [16] = Luminescence Cell-Based Dose Response HTS to Identify Inhibitors of 5'UTR Stem-Loop Driven Prion Protein mRNA Translation in H4 Neuroglioblastoma Cells. [Related pubchem assays: 1827 (Project Summary), 1813 (Primary HTS)]; type: functional
# [17] = inhibitors of SNCA 5'UTR-driven reporter translation, confirmation, H4 neuroglioma cells, luminescence (AID 1988); type: functional, cell-based
# BJ [18] = experiment: cells; type: functional, cell-based; conditions: Homo sapiens
# BJ [19] = experiment: cytotoxicity toward BJ-TERT-LT-ST fibroblasts, dose response, cell-based, RAS-independent, luminescence (AID 1935); type: functional; conditions: Homo sapiens;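 also: BJ fibroblasts immortalized with TERT plus LT and ST oncogenes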
# [20] = cytotoxicity toward DRD oncogenic fibroblasts, dose response, cell-based, non-viral oncogenic, luminescence (AID 1934); type: functional; conditions: Homo sapiens
# [21] = inhibitors of SNCA 5'UTR-driven translation, confirmation, luminescence, H4 neuroglioblastoma cells, dose confirmation (AID 2454); type: functional, cell-based;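 also: H4 neuroglioblastoma cells carrying an alpha-synuclein 5'UTR luciferase reporter; potency for inhibition of the luciferase signal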
# cells [22] = type: functional, cell-based; remark: listed apart in the source
# [23] = biological target: T4, Nuclear receptor subfamily 0 group B member 1 (Homo sapiens, UniProt P51843); type: functional, cell-based;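 also: HEK293T cells transfected with SF-1 and DAX-1 plus StAR promoter luciferase reporter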
# T4 sequence (P51843 whole entry): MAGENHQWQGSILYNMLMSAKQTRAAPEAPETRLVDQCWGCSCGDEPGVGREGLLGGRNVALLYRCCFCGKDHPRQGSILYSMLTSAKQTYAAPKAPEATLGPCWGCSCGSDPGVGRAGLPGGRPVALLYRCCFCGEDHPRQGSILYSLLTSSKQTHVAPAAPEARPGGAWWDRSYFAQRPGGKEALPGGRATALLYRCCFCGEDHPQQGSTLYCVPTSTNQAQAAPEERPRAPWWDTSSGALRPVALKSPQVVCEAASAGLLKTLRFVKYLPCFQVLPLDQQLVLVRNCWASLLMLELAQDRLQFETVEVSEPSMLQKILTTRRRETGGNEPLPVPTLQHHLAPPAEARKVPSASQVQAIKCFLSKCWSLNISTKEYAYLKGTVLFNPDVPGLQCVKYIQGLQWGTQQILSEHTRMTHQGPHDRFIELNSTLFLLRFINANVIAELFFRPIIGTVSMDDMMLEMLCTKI
# Protein skinhead-1 = biological target: T5, Protein skinhead-1 (Caenorhabditis elegans, UniProt P34707); type: functional
# T5 sequence (P34707 whole entry): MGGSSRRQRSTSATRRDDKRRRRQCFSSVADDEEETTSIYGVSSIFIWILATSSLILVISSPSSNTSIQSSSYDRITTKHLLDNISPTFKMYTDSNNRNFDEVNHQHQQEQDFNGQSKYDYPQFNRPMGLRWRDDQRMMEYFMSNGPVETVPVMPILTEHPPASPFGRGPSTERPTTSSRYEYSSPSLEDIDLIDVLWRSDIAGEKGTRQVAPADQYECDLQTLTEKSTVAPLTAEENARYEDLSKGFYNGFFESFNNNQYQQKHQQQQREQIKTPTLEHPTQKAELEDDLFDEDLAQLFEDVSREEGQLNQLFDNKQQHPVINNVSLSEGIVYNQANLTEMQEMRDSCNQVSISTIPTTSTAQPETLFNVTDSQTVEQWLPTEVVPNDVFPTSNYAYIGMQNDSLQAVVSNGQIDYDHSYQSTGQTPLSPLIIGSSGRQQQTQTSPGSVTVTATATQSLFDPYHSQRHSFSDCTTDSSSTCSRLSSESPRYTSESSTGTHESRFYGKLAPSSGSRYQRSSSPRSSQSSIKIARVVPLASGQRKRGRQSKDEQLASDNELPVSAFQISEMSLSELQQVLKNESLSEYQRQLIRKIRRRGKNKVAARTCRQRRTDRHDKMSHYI
# [24] = miR-122 activators in hepatoma reporter cells, dose response, cell-based, Huh7 psiCHECK-miR122, Renilla luciferase, cherry-picked (AID 651956); type: functional;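 also: huh7 hepatoma cells stably carrying a psiCHECK-2 miR-122 sensor plasmid; renilla luciferase signal reporting endogenous miR-122 activity after 48 h compound exposure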
# [25] = biological target: T6, Hepatocyte nuclear factor 4-alpha (Homo sapiens, UniProt P41235); type: functional, cell-based;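 also: biochemical luminescence-based dose-response counterscreen measuring inhibition of HNF4 dimerization, run alongside a screen for blockers of ABHD5–perilipin-5 interaction; split luciferase complementation of HNF4 fusion proteins in cell lysate measuring dimerization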
# T6 sequence (P41235 whole entry): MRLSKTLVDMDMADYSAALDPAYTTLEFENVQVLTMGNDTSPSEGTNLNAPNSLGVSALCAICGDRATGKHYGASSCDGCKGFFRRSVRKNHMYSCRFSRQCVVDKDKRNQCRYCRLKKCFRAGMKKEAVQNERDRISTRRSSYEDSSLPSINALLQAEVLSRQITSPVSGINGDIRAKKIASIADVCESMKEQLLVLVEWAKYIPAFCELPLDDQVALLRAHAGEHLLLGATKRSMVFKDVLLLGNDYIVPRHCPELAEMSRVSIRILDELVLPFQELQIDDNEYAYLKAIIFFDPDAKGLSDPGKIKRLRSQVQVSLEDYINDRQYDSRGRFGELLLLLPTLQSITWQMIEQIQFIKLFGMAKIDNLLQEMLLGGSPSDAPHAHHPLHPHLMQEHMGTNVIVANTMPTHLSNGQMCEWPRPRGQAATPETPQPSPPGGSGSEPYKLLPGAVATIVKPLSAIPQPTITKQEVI
# [26] = growth suppression of PTEN-null colon cells, dose response, cell-based, HCT116 PTEN knockout (AID 1047); type: functional;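 also: HCT116 colon tumor cells with PTEN knocked out; cells exposed to compound for 60 hours before readout; potency for loss of cell viability measured by luminescence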
# [27] = growth suppression of beta-catenin-knockout colon cells, dose response, cell-based, HCT116, human colon tumor (AID 1045); type: functional;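 also: HCT116 colon tumor cells with beta catenin knocked out; cells exposed to compound for 60 hours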
# [28] = Luminescence Cell-Based Dose Retest to Confirm Inhibitors of Cancer Stem Cells. [Related pubchem assays (depositor defined):AID2717, AID2721]; type: functional; conditions: Homo sapiens
structure (smiles),measurement,setting,value
CN(C)c1cc(NC(=O)CNC(C)(C)C)c2ccccc2n1,AC50,[1],16.4 µM (active)
CCOC(=O)Cc1nnc2c(Nc3ccccc3F)nc3nonc3n12,EC50,[2],> 195 µM (not active)
same,IC50,[3],3.87 µM (active)
O=C(NCc1ccco1)c1ccc(Cn2c(=O)c3sccc3n(Cc3ccc(F)cc3)c2=O)cc1,CC50,[4],44.8 µM (active)
same,AC50,[5],< 0.26 µM (active)
same,AC50,[6],0.349 µM (active)
same,AC50,[7],< 0.26 µM (active)
same,AC50,[8],0.665 µM (active)
same,IC50,cells [9],4.76 µM (active)
CCCCCn1c(N)c(-c2nc3ccccc3o2)c2c([N+](=O)[O-])nn(CC)c(=O)c21,IC50,[10],5.88 µM (active)
same,IC50,[11],8.25 µM (active)
Cc1sc(NC(=O)/C=C/c2ccc3c(c2)OCO3)nc1-c1ccccc1,IC50,[3],7.04 µM (active)
CCOC(=O)CSC1=C(C#N)C(c2ccc(C)o2)CC(=O)N1 (stereo unspecified),EC50,[12],2.61 µM (active)
same,EC50,[13],0.961 µM (active)
same,EC50,BJ [14],1.31 µM (active)
same,EC50,cells [15],1.56 µM (active)
same,EC50,[16],0.894 µM (active)
same,EC50,[17],< 0.1 µM (active)
same,EC50,BJ [18],14.9 µM (active)
same,EC50,BJ [19],1.36 µM (active)
same,EC50,[20],1.04 µM (active)
same,EC50,[21],> 12 µM (inconclusive)
same,IC50,cells [22],> 67.6 µM (inactive)
same,IC50,[23],> 67.6 µM (inactive)
CCOC(=O)c1cnc2c(CC)cccc2c1NCCCN1CCOCC1,AC50,[1],21.6 µM (active)
O=C(/C(=C/Nc1ccc(Br)cc1)C(=O)C(F)(F)F)c1ccco1,IC50,Protein skinhead-1,27.2 µM (active)
same,IC50,cells [22],> 67.5 µM (inactive)
same,IC50,[23],> 67.5 µM (inactive)
COC(=O)C[C@@H]1CC[C@@H]2[C@H](COc3ccc(NC(=O)Nc4cccc(F)c4)cc3C(=O)N2C)O1,AC50,[24],40.1 µM (active)
COCC(=O)N(C)C[C@H]1[C@H](c2ccccc2)[C@@H](CO)N1C(=O)NC(C)C,AC50,[24],50.3 µM (active)
CCCCCNC(=O)C(C1CC1)n1c(=O)c(-c2ccco2)nc2ccccc21 (stereo unspecified),IC50,[25],6.11 µM (active)
C=C1CCN([C@@H](Cc2ccccc2)C(=O)Nc2ccc(OC)cc2)S(=O)(=O)c2ccccc21,AC50,[5],0.923 µM (active)
same,AC50,[6],0.848 µM (active)
same,AC50,[7],1.31 µM (active)
same,AC50,[8],2.03 µM (active)
CN1CCc2c(sc(/N=C/c3c[nH]c4ccccc34)c2C(N)=O)C1,IC50,[10],> 80 µM (inactive)
same,IC50,[11],57.2 µM (inactive)
O=C/C(=N\Nc1ccc(Cl)cc1)C(=O)c1ccncc1,EC50,[26],116 µM (active)
same,EC50,[27],42.2 µM (active)
same,AC50,[28],5.23 µM (active)
same,IC50,[25],28.9 µM (inactive)
